# Earlier results as cited in US20030072777A1, “Combinatorial anti-acne compositions” (priority 2001, published 2003).
# Read-outs that look alike come from different tables or passages of the source.
# Legend:
# [1] = system: P. acnes; details: 5 percent benzoyl peroxide two times daily for five days
# [2] = system: inflammatory lesions and comedones of acne vulgaris
# [3] = system: sebaceous glands; details: retinoid treatment
SMILES,Reduction of P. acnes population [1],"Average percent reduction of non-inflamed lesions (mean comedone counts) ([2]; Week 2, data from Chalker et al. FIG. 1)","Average percent reduction of inflamed lesions (mean inflammatory lesion counts) ([2]; Week 2, data from Chalker et al. FIG. 4)","Average percent reduction of non-inflamed lesions (mean comedone counts) ([2]; Week 4, data from Chalker et al. FIG. 1)","Average percent reduction of inflamed lesions (mean inflammatory lesion counts) ([2]; Week 4, data from Chalker et al. FIG. 4)","Average percent reduction of non-inflamed lesions (mean comedone counts) ([2]; Week 6, data from Chalker et al. FIG. 1)","Average percent reduction of inflamed lesions (mean inflammatory lesion counts) ([2]; Week 6, data from Chalker et al. FIG. 4)",Shrinkage of the glands [3]
"O=C(OOC(=O)c1ccccc1)c1ccccc1 [5.0% Benzoyl peroxide, Benzoyl peroxide]",more than 95%,12%,27%,15%,21%,28%,46%,
"CC1=C(/C=C/C(C)=C/C=C/C(C)=C\C(=O)O)C(C)(C)CCC1 [isotretinoin, 13-cis retinoic acid]",,,,,,,,about 90%
